The text below walks through data of ChEMBL document CHEMBL2057166, “Discovery of novel hedgehog antagonists from cell-based screening: Isosteric modification of p38 bisamides as potent inhibitors of SMO” (Bioorg Med Chem Lett, 2012).

The bioavailability is the share of a dose that reaches the circulation, judged against a reference dose that is usually intravenous. A higher bioavailability goes with much systemic uptake. The term half-life denotes the time in which the quantity being followed falls by half. In general, AUC refers to concentration integrated over time. A higher AUC goes with high exposure.

Format in all cases: ADME, organism-based
Data set [1] in a line: Oral bioavailability in CD-1 mouse at 10 mg/kg. As to conditions: in vivo.
The nature of data set [2]: Half life in CD-1 mouse at 3 mg/kg, iv. Details: dose 3 mg/kg, route intravenous. The settings on record: in vivo.
The nature of data set [3]: AUC in CD-1 mouse at 10 mg/kg, po. On the set-up: dose 10 mg/kg, route oral. The settings on record: plasma.
Data set [4] in a line: Clearance in CD-1 mouse at 3 mg/kg, iv and 10 mg/kg, po. The settings on record: in vivo.
Data set [5] in a line: Volume of distribution at steady state in CD-1 mouse at 3 mg/kg, iv and 10 mg/kg, po. As to conditions: in vivo, read-out: Vdss.

`Cc1ccc(-c2ncc(C)n2C)cc1NC(=O)c1ccc(OCc2ccccn2)cc1`: the bioavailability in data set [1] was 22%. The same compound showed a half-life in data set [2] of 54 min. Also, in data set [3], the exposure (AUC) was found to be 100 ng·h/mL. In addition, in data set [4], the clearance stood at 210 mL/min/kg. The Vd in data set [5] is 12 L/kg.
The corresponding values for `Cc1ccc(-c2ncc[nH]2)cc1NC(=O)c1ccc(OCc2ccccn2)cc1` are 83%, 60 min, 12500 ng·h/mL, 8.3 mL/min/kg and 0.5 L/kg.
